Laboratory results reported in ChEMBL document CHEMBL4002616, “Functionalized triazines as potent HCV entry inhibitors” (Bioorg Med Chem Lett, 2017).

Key:
[1] = (§1) Metabolic stability in rat liver microsomes assessed as parent compound remaining after 10 mins; type: ADME, microsome; settings: liver microsomes, read-out: Stability
[2] = Metabolic stability in human liver microsomes assessed as parent compound remaining after 10 mins; type: ADME, microsome; settings: read-out: Stability
Liver = assay: as §1; type: ADME, microsome; settings: microsomes, 10 min
[3] = Volume of distribution at steady state in rat at 2 mg/kg, iv or 5 mg/kg, po; type: ADME, organism-based; settings: in vivo, read-out: Vdss
[4] = Clearance in rat at 2 mg/kg, iv; type: ADME, organism-based; settings: in vivo
Rattus norvegicus = assay: AUC in rat at 5 mg/kg, po; type: ADME, organism-based; settings: in vivo, BLD = below limit of detection
[5] = Plasma half life in rat at 2 mg/kg, iv; type: ADME, organism-based

Compound | remaining at 10 min [1] | remaining at 10 min [2] | also measured
CCCCCNc1nc(Nc2ccc([N+](=O)[O-])cc2)nc(OCC(F)(F)F)n1 | 35% | 74% | 
CNC(=O)NCCS(=O)(=O)NC(=O)c1ccc(Nc2nc(NC3(c4ccc(Cl)cc4)CC3)nc(OCC(F)(F)F)n2)cc1 | 100% | 97% | 
CC(C)NC(=O)NCCS(=O)(=O)NC(=O)c1ccc(Nc2nc(NC3(c4ccc(Cl)cc4)CC3)nc(OCC(F)(F)F)n2)cc1 | 97% | 100% | 
Cc1ccccc1S(=O)(=O)NC(=O)c1ccc(Nc2nc(NC3(c4ccc(Cl)cc4)CC3)nc(OCC(F)(F)F)n2)cc1 | 100% | 100% | 
CC(C)NCCS(=O)(=O)NC(=O)c1ccc(Nc2nc(NC3(c4ccc(Cl)cc4)CC3)nc(OCC(F)(F)F)n2)cc1 | 100% | 89% | 
CC(C)S(=O)(=O)NC(=O)c1ccc(Nc2nc(NC3(c4ccc(Cl)cc4)CC3)nc(OCC(F)(F)F)n2)cc1 | 96% | 100% | 
CC(C)(C)OC(=O)NCCS(=O)(=O)NC(=O)c1ccc(Nc2nc(NC3(c4ccc(Cl)cc4)CC3)nc(OCC(F)(F)F)n2)cc1 | 93% | 92% | 
COC(=O)NCCS(=O)(=O)NC(=O)c1ccc(Nc2nc(NC3(c4ccc(Cl)cc4)CC3)nc(OCC(F)(F)F)n2)cc1 | 100% | 90% | 
CN(C)S(=O)(=O)NC(=O)c1ccc(Nc2nc(NC3(c4ccc(Cl)cc4)CC3)nc(OCC(F)(F)F)n2)cc1 | 76% | 86% | 
O=C(NS(=O)(=O)CCN1CCCC1)c1ccc(Nc2nc(NC3(c4ccc(Cl)cc4)CC3)nc(OCC(F)(F)F)n2)cc1 | 98% | 96% | 
CS(=O)(=O)NC(=O)c1ccc(Nc2nc(NC3(c4ccc(Cl)cc4)CC3)nc(OCC(F)(F)F)n2)cc1 | 85% | 100% | 
O=C(NS(=O)(=O)CCNCc1ccccc1)c1ccc(Nc2nc(NC3(c4ccc(Cl)cc4)CC3)nc(OCC(F)(F)F)n2)cc1 | 100% | 99% | 
CC(=O)NCCS(=O)(=O)NC(=O)c1ccc(Nc2nc(NC3(c4ccc(Cl)cc4)CC3)nc(OCC(F)(F)F)n2)cc1 | 100% | 95% | 
CC(C)(C)NC(=O)NCCS(=O)(=O)NC(=O)c1ccc(Nc2nc(NC3(c4ccc(Cl)cc4)CC3)nc(OCC(F)(F)F)n2)cc1 | 93% | 96% | 
CN(C)CCS(=O)(=O)NC(=O)c1ccc(Nc2nc(NC3(c4ccc(Cl)cc4)CC3)nc(OCC(F)(F)F)n2)cc1 | 100% | 89% | 
O=C(NS(=O)(=O)CCN1CCOCC1)c1ccc(Nc2nc(NC3(c4ccc(Cl)cc4)CC3)nc(OCC(F)(F)F)n2)cc1 | 97% | 78% | 
O=C(NS(=O)(=O)C1CC1)c1ccc(Nc2nc(NC3(c4ccc(Cl)cc4)CC3)nc(OCC(F)(F)F)n2)cc1 | 85% | 100% | 
O=C(NS(=O)(=O)CCNC(=O)C1CC1)c1ccc(Nc2nc(NC3(c4ccc(Cl)cc4)CC3)nc(OCC(F)(F)F)n2)cc1 |  | 90% | Stability (Liver): Not Active
CC(C)OC(=O)NCCS(=O)(=O)NC(=O)c1ccc(Nc2nc(NC3(c4ccc(Cl)cc4)CC3)nc(OCC(F)(F)F)n2)cc1 | 73% | 100% | 
O=C(NS(=O)(=O)c1ccc(F)cc1)c1ccc(Nc2nc(NC3(c4ccc(Cl)cc4)CC3)nc(OCC(F)(F)F)n2)cc1 | 99% | 100% | 
CCN(CC)CCS(=O)(=O)NC(=O)c1ccc(Nc2nc(NC3(c4ccc(Cl)cc4)CC3)nc(OCC(F)(F)F)n2)cc1 | 98% | 99% | 
O=C(O)c1ccc(Nc2nc(NC3(c4ccc(Cl)cc4)CC3)nc(OCC(F)(F)F)n2)cc1 | 99% | 89% | 
CC(C)(C)CNCCS(=O)(=O)NC(=O)c1ccc(Nc2nc(NC3(c4ccc(Cl)cc4)CC3)nc(OCC(F)(F)F)n2)cc1 | 90% | 89% | Vd [3]: 0.6 L/kg; clearance [4]: 1.35 L/h/kg; AUC (Rattus norvegicus): Bld; half-life [5]: 2.6 h
CC(C)C(=O)NCCS(=O)(=O)NC(=O)c1ccc(Nc2nc(NC3(c4ccc(Cl)cc4)CC3)nc(OCC(F)(F)F)n2)cc1 | 84% | 86% | 
O=C(NS(=O)(=O)c1ccccc1)c1ccc(Nc2nc(NC3(c4ccc(Cl)cc4)CC3)nc(OCC(F)(F)F)n2)cc1 | 100% | 100% | 
NCCS(=O)(=O)NC(=O)c1ccc(Nc2nc(NC3(c4ccc(Cl)cc4)CC3)nc(OCC(F)(F)F)n2)cc1 | 100% | 100% | 
CCS(=O)(=O)NC(=O)c1ccc(Nc2nc(NC3(c4ccc(Cl)cc4)CC3)nc(OCC(F)(F)F)n2)cc1 | 85% | 100% | 
